The source of these data is US12304912B2, “Fused bicyclic RAF inhibitors and methods for use thereof” (Jazz Pharmaceuticals Ireland Limited, priority 2020, dated 2025).

For data set [1], the system named is BRAF monomers in A375 cells. In words: A375 AlphaLISA SureFire pERK1/2 cellular assay (monomer). Type of data set: cell-based. The following applies: Homo sapiens, A-375; A375 cells, 1 hr; read-out: pERK A375 (1 hr) pIC50 (converted). In a few lines: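 BRAF^V600E A375 melanoma cells seeded at 30,000/well in DMEM with 10% FBS, dosed without medium exchange in a 10-point series from 10 μM at 1/2-log steps, 1 h at 37 °C. Phospho-ERK1/2 (Thr202/Tyr204) measured in lysates by AlphaLISA SureFire; absolute IC50 relative to DMSO control.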
(Alpha assays give light when donor and acceptor beads are brought close together.)

The subject of data set [2] is constitutive ERK phosphorylation in HCT-116 cells. In words: HCT-116 AlphaLISA SureFire pERK1/2 cellular assay. It is filed as cell-based, human. The following applies: HCT116 cells, 2 hr; for IC50: Homo sapiens, HCT-116, read-out: pERK HCT116 (2 hr) Abs pIC50 (converted). As to the method:
HCT-116 AlphaLISA SureFire pERK1/2 Cellular Assay […] […] Assay read outs took place 2 or 24 hours after dosing with compounds. On the first day, HCT-116 cells were harvested, resuspended in growth medium (McCoys5A with Glutamax (Life Technologies 36600021) and 10% heat-inactivated fetal bovine serum (Sigma F9665)), and counted. Cells were plated in 100 μl per well in each well of a 96-well culture dish (Sigma CLS3598) to a final density of 30,000 (2 hr read) or 15,000 (24 hr read) cells per well and incubated over night at 37° C. and 5% CO2. On day 2, the growth medium was exchanged for dosing medium (McCoys5A with Glutamax (Life Technologies 36600021) and 1% heat-inactivated fetal bovine serum (Sigma F9665)) and the cells were dosed with compounds to produce a 10-point dose response, where the top concentration was 1 μM and subsequent concentrations were at 1/3 log dilution intervals. A matched DMSO control was included. The cells were subsequently incubated for either 2 or 24 hours at 37° C. and 5% CO2. After incubation, media was removed and the cells were incubated with lysis buffer containing phosphatase inhibitors for 15 minutes at room temperature. Cell lysates were transferred to a 12 area 96 well white Optiplate™ (Perkin Elmer 6005569) and incubated with anti-mouse IgG acceptor beads, a biotinylated anti-ERK1/2 rabbit antibody recognizing both phosphorylated and non-phosphorylated ERK1/2, a mouse antibody targeted to the Thr202/Tyr204 epitope and recognizing phosphorylated ERK proteins only, and streptavidin-coated donor beads. The biotinylated antibody binds to the streptavidin-coated donor beads and the phopsho-ERK1/2 antibody binds to the acceptor beads. […] Both antibodies bound to phosphorylated ERK proteins, bringing the donor and acceptor beads into close proximity. All data were analyzed using the Dotmatics or GraphPad Prism software packages. Inhibition of ERK phosphorylation was assessed by determination of the absolute IC50 value, which is defined as the concentration of compound required to decrease the level of phosphorylated ERK proteins by 50% when compared to DMSO control.

Data set [3] can be described thus: Plasma protein binding assay, mouse plasma (mPPB). Type of data set: in vitro ADME. The settings on record: 5 μM. In a few lines: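 Equilibrium dialysis of 5 μM compound in previously frozen human or mouse plasma against phosphate buffer, 4 h at 37 °C. Both chambers quantified by LC-MS/MS; % free = (1−((PC−PF)/PC))×100.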
Where [4] appears, read: equilibrium dialysis 4 hours at 37° C.
[5] abbreviates: equilibrium dialysis 4 hours 37° C.

Like-named read-outs stand apart in the source and are kept apart here.

As to `COc1csc(-c2c[nH]c(C3COc4ccc(Oc5ccnc6c5CCC(=O)N6)cc4C3)n2)c1` (stereo not shown) [Compound 122, 5-[3-[5-(4-methoxy-2-thienyl)-1H-imidazol-2-yl]chroman-6-yl]oxy-3,4-dihydro-1H-1,8-naphthyridin-2-one], the IC50 was 0.288 µM in data set [1] and 0.132 µM in data set [2] (Abs). Besides, in data set [3] (setting [4]), the “mPPB (% free)” value is 0.21 % free.
The matching figures for `CCc1cc(-c2c[nH]c(C3COc4ccc(Oc5ccnc6c5CCC(=O)N6)cc4C3)n2)n(C2CC2)n1` (stereo not shown) [Compound 113, 5-[3-[4-(2-cyclopropyl-5-ethyl-pyrazol-3-yl)-1H-imidazol-2-yl]chroman-6-yl]oxy-3,4-dihydro-1H-1,8-naphthyridin-2-one]: 4.68 µM, greater than 1 µM and 1.6 % free.
For `O=C(CN1CCCC1)Nc1cc(Oc2ccc3c(c2)CC(c2nc(-c4ccccc4)c[nH]2)CO3)ccn1` (stereo not shown) [Compound 152], in that order: 0.603 µM, 0.209 µM and 0.47 % free.
For `CCc1cc(-c2c[nH]c(C3COc4ccc(Oc5ccnc6c5CCC(=O)N6)cc4C3)n2)ccn1` (stereo not shown) [Compound 118, 5-[3-[4-(2-ethyl-4-pyridyl)-1H-imidazol-2-yl]chroman-6-yl]oxy-3,4-dihydro-1H-1,8-naphthyridin-2-one], in that order: 0.631 µM, 0.269 µM and 1.0 % free.
On to `CN(C)c1ccc2[nH]c(C3COc4ccc(Oc5ccnc6c5CCC(=O)N6)cc4C3)nc2c1` (stereo not shown) [Compound 26], for which the results for the IC50 in data set [1] and in data set [2] (absolute IC50) were 0.0646 µM and 0.417 µM, respectively. Also, the “mPPB (% free)” value in data set [3] (setting [5]) turned out to be 1 % free.
Take `COc1cc(-c2c[nH]c(C3COc4ccc(Oc5ccnc6c5CCC(=O)N6)cc4C3)n2)ccn1` (stereo not shown) [Compound 104]: the “pERK HCT116 (2 hr) Abs pIC50” value in data set [2] (Abs) worked out at 6.50. In addition, the “mPPB (% free)” value in data set [3] (setting [4]) is recorded as 1.5 % free.
As for `CC(C)CCc1c[nH]c(C2COc3ccc(Oc4ccnc5c4CCC(=O)N5)cc3C2)n1` (stereo not shown) [Compound 116], the IC50 in data set [1] was 0.0468 µM; in data set [2] (Abs), 0.0676 µM. Moreover, the “mPPB (% free)” value in data set [3] (setting [4]) is recorded as 0.23 % free.
The matching figures for `COc1ccsc1-c1c[nH]c(C2COc3ccc(Oc4ccnc5c4CCC(=O)N5)cc3C2)n1` (stereo not shown) [Compound 123]: 0.0282 µM, 0.0631 µM and 0.25 % free.
Take `O=C1CCc2c(Oc3ccc4c(c3)CC(c3nc5cc(Cl)ccc5[nH]3)CO4)ccnc2N1` (stereo not shown) [Compound 25]: the IC50 was 0.115 µM in data set [1] and 0.0851 µM in data set [2] (absolute IC50). Further, the “mPPB (% free)” value in data set [3] (setting [5]) is recorded as 1.5 % free.
In the case of `Cc1cc(-c2c[nH]c(C3COc4ccc(Oc5ccnc6c5CCC(=O)N6)cc4C3)n2)ccn1` (stereo not shown) [Compound 117, 5-[3-[4-(2-methyl-4-pyridyl)-1H-imidazol-2-yl]chroman-6-yl]oxy-3,4-dihydro-1H-1,8-naphthyridin-2-one], the IC50 in data set [1] is 0.724 µM; in data set [2] (Abs), 0.107 µM. Besides, in data set [3] (setting [4]), the “mPPB (% free)” value was found to be 2.3 % free.
For `CN1CCC(C(=O)Nc2cc(Oc3ccc4c(c3)CC(c3nc(-c5ccccc5)c[nH]3)CO4)ccn2)CC1` (stereo not shown) [Compound 147, 1-methyl-N-[4-[3-(4-phenyl-1H-imidazol-2-yl)chroman-6-yl]oxy-2-pyridyl]piperidine-4-carboxamide], in that order: 0.631 µM, 0.324 µM and 0.8 % free.
The matching figures for `CC1CC1C(=O)Nc1cc(Oc2ccc3c(c2)CC(c2nc(-c4ccccc4)c[nH]2)CO3)ccn1` (stereo not shown) [Compound 157]: 0.525 µM, 0.112 µM and less than 0.1 % free.
`Cn1nc(C2CC2)cc1-c1c[nH]c(C2COc3ccc(Oc4ccnc5c4CCC(=O)N5)cc3C2)n1` (stereo not shown) [Compound 125, 5-[3-[4-(5-cyclopropyl-2-methyl-pyrazol-3-yl)-1H-imidazol-2-yl]chroman-6-yl]oxy-3,4-dihydro-1H-1,8-naphthyridin-2-one]: the IC50 in data set [1] is 4.47 µM; in data set [2] (Abs), 0.355 µM.
